The test system of this test is 24 h food-deprived Wistar rats. In words: Acute feeding study: cumulative food intake after i.p. or oral administration. Format: in vivo. How it is done:
The experiments were performed on male Wistar rats weighing 300-350 g. The animals were housed individually under a 12 h light/dark cycle in a room with temperature and humidity control. The rats had ad libitum access to food and water, except during the feeding studies. Prior to the experiments, animals were acclimated to the handling.
For the acute feeding studies, the nanoemulsion G-F68 or Tween 20 were prepared in 5% in saline.
Regarding the acute studies with OEA, the drug was obtained from Tocris Bioscience (Bristol, UK). It was administered in a solution contained the nanoemulsion G-F68 (5%) and saline (95%) prepared in fresh the same day of the experiment. The doses tested were: • a) 1, 5 and 10 mg/kg of OEA for the intraperitoneal acute studies. The volume of the administration was 1 ml/kg. • b) 1, 10 and 50 mg/kg of OEA for the oral acute studies. The volume of the administration was 3 ml/kg.
The hypophagic actions of the N-acylethanolamine OEA were evaluated using the nanoemulsion G-F68 as delivery system (vehicle). For these experiments, we used animals habituated to the experimental protocols. To this end, 48 h before each experiment, the bedding was removed and replaced by small food containers into the cage for 4 h. After this initial phase, the animals were deprived of food for 24 h, but had free access to water. The different treatments were administered 15 min prior access to food. Animals were then returned to their home cages and a measured amount of food (30-40 g) was placed into the cages (t = 0 h). Food pellets were weighed at time intervals of 15, 30, 60, 120 and 240 min, and 24 h after the acute treatment.

Consider one molecule from patent EP2985276A1, “FORMULATIONS BASED ON NANOEMULSIONS AND THE USE THEREOF FOR TREATING OBESITY” (Fundación Pública Andaluza Para La Investigación de Malaga …, priority 2013, dated 2014).

For `CCCCCCCC/C=C\CCCCCCCC(=O)NCCO` [OEA, N-oleoylethanolamine], the food intake entry was “significant decrease in food intake” (OEA 1 mg/kg oral (i.g., 3 ml/kg) in G-F68, vs G-F68 group, p<0.01 at 240 min); “significant reduction on food intake” (OEA 5 mg/kg i.p. in G-F68 (5% in saline), vs nanoemulsion group, p<0.001 at 15 min, p<0.05 at 30 min); “significant reduction on food intake” (OEA 10 mg/kg i.p. in G-F68 (5% in saline), vs nanoemulsion group, p<0.001 at 15, 30 and 60 min); “significant decrease in food intake” (OEA 10 mg/kg oral (i.g., 3 ml/kg) in G-F68, vs G-F68 group, p<0.05 at 240 min); “significant decrease in food intake” (OEA 50 mg/kg oral (i.g., 3 ml/kg) in G-F68, vs G-F68 group, significant at 15, 30, 60, 120, 240 min and 24 h); “significant decrease in food intake only at 30 and 60 min” (OEA 50 mg/kg oral (i.g., 3 ml/kg) prepared in Tween 20, vs vehicle Tween 20 group, p<0.05). The feeding entry (OEA 50 mg/kg oral (i.g., 3 ml/kg) within nanoemulsion G-F68, vs its vehicle group (Figure 7), 15 min to 24 h) is “prolonged and significant reduction of feeding at all times”. Moreover, the cumulative food intake entry (OEA i.p., the different doses (1, 5, 10 mg/kg) in G-F68, 24 h after administration, vs vehicle group) is given as “no effects on cumulative food intake”.
